Data reported in US10760110B2, “Antibiotic testing and screening system” (priority 2017, dated 2020).
Where two headings read alike, the source gives them in different places.

System: K. pneumoniae NVT1001 strains with ESBL or AmpC β-lactamase plasmids
Test: Etest MIC of β-lactams, OmpK35/36 loss, ΔramR and/or extended-spectrum β-lactamase and AmpC β-lactamase (Table 8)
Type: cell-based, Klebsiella pneumoniae
Conditions: for MIC: Klebsiella pneumoniae
Description: DNA fragments of the resistance genes along with their flanking regions were amplified from clinical plasmids via PCR with specific primer pairs. The resulting PCR fragments were digested and then cloned into the plasmid pACYC177 or pACYC184. The resulting plasmids were then transformed into K. pneumoniae strain NVT1001 via electroporation. The recombinant bacteria were plated onto LB agar plates containing kanamycin (50 mg/L) or chloramphenicol (50 mg/L), and the presence of the cloned gene was confirmed via PCR and DNA sequencing.
The MICs of antibiotics were determined using the Etest (Biodisk AB, Sweden) according to the manufacturer's instructions. The MICs from the Etest, which fall between standard two-fold dilutions, were rounded up to the next highest two-fold value. The MICs of ceftazidime and cefotaxime against K. pneumoniae NVT1001 harbouring the pACYC177 plasmid with blaOXA-48 were further determined using a broth microdilution test according to the recommendations of the CLSI,^25 and the results were interpreted according to the breakpoints established by the CLSI in 2017.^25 Meanwhile, due to the lack of CLSI breakpoints in 2016 and 2017, the results for cephalothin were interpreted according to the breakpoints established by the CLSI in 2015,^26 and the results for moxifloxacin were interpreted according to the breakpoints established by the EUCAST in 2017.^27

[1] = CMY-2 on pACYC177, WT (NVT1001), read-out: MIC
[2] = CMY-2 on pACYC177, Δ35 (ΔompK35 mutant)
[3] = CMY-2 on pACYC177, Δ35/36 (ΔompK35/36 mutant)
[4] = CMY-2 on pACYC177, Δ36 (ΔompK36 mutant)
[5] = CMY-2 on pACYC177, ΔramR mutant
[6] = CMY-2 on pACYC177, ΔramRΔ35 (ΔramRΔompK35 mutant)
[7] = CMY-2 on pACYC177, ΔramRΔ35/36 (ΔramRΔompK35/36 mutant)
[8] = CMY-2 on pACYC177, ΔramRΔ36 (ΔramRΔompK36 mutant)
[9] = CTX-M-14 on pACYC177, WT (NVT1001), read-out: MIC
[10] = CTX-M-14 on pACYC177, Δ35 (ΔompK35 mutant)
[11] = CTX-M-14 on pACYC177, Δ35/36 (ΔompK35/36 mutant)
[12] = CTX-M-14 on pACYC177, Δ36 (ΔompK36 mutant)
[13] = CTX-M-14 on pACYC177, ΔramR mutant
[14] = CTX-M-14 on pACYC177, ΔramRΔ35 (ΔramRΔompK35 mutant)
[15] = CTX-M-14 on pACYC177, ΔramRΔ35/36 (ΔramRΔompK35/36 mutant)
[16] = CTX-M-14 on pACYC177, ΔramRΔ36 (ΔramRΔompK36 mutant)
[17] = CTX-M-15 on pACYC177, WT (NVT1001), read-out: MIC
[18] = CTX-M-15 on pACYC177, Δ35 (ΔompK35 mutant)
[19] = CTX-M-15 on pACYC177, Δ35/36 (ΔompK35/36 mutant)
[20] = CTX-M-15 on pACYC177, Δ36 (ΔompK36 mutant)
[21] = CTX-M-15 on pACYC177, ΔramR mutant
[22] = CTX-M-15 on pACYC177, ΔramRΔ35 (ΔramRΔompK35 mutant)
[23] = CTX-M-15 on pACYC177, ΔramRΔ35/36 (ΔramRΔompK35/36 mutant)
[24] = CTX-M-15 on pACYC177, ΔramRΔ36 (ΔramRΔompK36 mutant)
[25] = DHA-1-AmpR on pACYC177, WT (NVT1001), read-out: MIC
[26] = DHA-1-AmpR on pACYC177, Δ35 (ΔompK35 mutant)
[27] = DHA-1-AmpR on pACYC177, Δ35/36 (ΔompK35/36 mutant)
[28] = DHA-1-AmpR on pACYC177, Δ36 (ΔompK36 mutant)
[29] = DHA-1-AmpR on pACYC177, ΔramR mutant
[30] = DHA-1-AmpR on pACYC177, ΔramRΔ35 (ΔramRΔompK35 mutant)
[31] = DHA-1-AmpR on pACYC177, ΔramRΔ35/36 (ΔramRΔompK35/36 mutant)
[32] = DHA-1-AmpR on pACYC177, ΔramRΔ36 (ΔramRΔompK36 mutant)
[33] = SHV-12 on pACYC177, WT (NVT1001), read-out: MIC
[34] = SHV-12 on pACYC177, Δ35 (ΔompK35 mutant)
[35] = SHV-12 on pACYC177, Δ35/36 (ΔompK35/36 mutant)
[36] = SHV-12 on pACYC177, Δ36 (ΔompK36 mutant)
[37] = SHV-12 on pACYC177, ΔramR mutant
[38] = SHV-12 on pACYC177, ΔramRΔ35 (ΔramRΔompK35 mutant)
[39] = SHV-12 on pACYC177, ΔramRΔ35/36 (ΔramRΔompK35/36 mutant)
[40] = SHV-12 on pACYC177, ΔramRΔ36 (ΔramRΔompK36 mutant)
[41] = no supplemental plasmid, WT (NVT1001), read-out: MIC
[42] = no supplemental plasmid, Δ35 (ΔompK35 mutant)
[43] = no supplemental plasmid, Δ35/36 (ΔompK35/36 mutant)
[44] = no supplemental plasmid, Δ36 (ΔompK36 mutant)
[45] = no supplemental plasmid, ΔramR mutant
[46] = no supplemental plasmid, ΔramRΔ35 (ΔramRΔompK35 mutant)
[47] = no supplemental plasmid, ΔramRΔ35/36 (ΔramRΔompK35/36 mutant)
[48] = no supplemental plasmid, ΔramRΔ36 (ΔramRΔompK36 mutant)

`C[C@@H](O)[C@H]1C(=O)N2C(C(=O)O)=C(S[C@@H]3CN[C@H](CNS(N)(=O)=O)C3)[C@H](C)[C@H]12` [Doripenem] gave an MIC [1] of 0.25 µg/mL, an MIC [2] of 0.25 µg/mL and an MIC [3] of 8 µg/mL. It also gave an MIC [4] of 1 µg/mL, an MIC [5] of 0.125 µg/mL and an MIC [6] of 0.125 µg/mL. The MIC [7] was 4 µg/mL, the MIC [8] was 4 µg/mL and the MIC [9] was 0.125 µg/mL. For the same molecule, the MIC [10] was 0.125 µg/mL, the MIC [11] was 1 µg/mL and the MIC [12] was 0.125 µg/mL. It also gave an MIC [13] of 0.06 µg/mL, an MIC [14] of 0.06 µg/mL and an MIC [15] of 0.5 µg/mL. The MIC [16] was 0.5 µg/mL, the MIC [17] was 0.125 µg/mL and the MIC [18] was 0.125 µg/mL. For the same molecule, the MIC [19] was 4 µg/mL, the MIC [20] was 0.25 µg/mL and the MIC [21] was 0.125 µg/mL. It also gave an MIC [22] of 0.125 µg/mL, an MIC [23] of 2 µg/mL and an MIC [24] of 2 µg/mL. For the same molecule, the MIC [25] was 0.125 µg/mL, the MIC [26] was 0.125 µg/mL and the MIC [27] was 8 µg/mL. The MIC [28] was 0.25 µg/mL, the MIC [29] was 0.125 µg/mL and the MIC [30] was 0.125 µg/mL. It also gave an MIC [31] of 4 µg/mL, an MIC [32] of 4 µg/mL and an MIC [33] of 0.125 µg/mL. For the same molecule, the MIC [34] was 0.125 µg/mL, the MIC [35] was 1 µg/mL and the MIC [36] was 0.125 µg/mL. It also gave an MIC [37] of 0.06 µg/mL, an MIC [38] of 0.06 µg/mL and an MIC [39] of 0.5 µg/mL. It also gave an MIC [40] of 0.5 µg/mL, an MIC [41] of 0.06 µg/mL and an MIC [42] of 0.06 µg/mL. It also gave an MIC [43] of 0.125 µg/mL, an MIC [44] of 0.06 µg/mL and an MIC [45] of 0.03 µg/mL. The MIC [46] was 0.03 µg/mL, the MIC [47] was 0.5 µg/mL and the MIC [48] was 0.25 µg/mL. The “effects on the MIC” value (production of ESBLs tested alone) was “no significant (≥4-fold) effects” and the “effects on the MIC” value (strains with ΔramR, with or without ESBLs or AmpC β-lactamases) was “no significant (≥4-fold) effects”.

In the case of `C[C@@H](O)[C@H]1C(=O)N2C(C(=O)O)=C(S[C@@H]3CN[C@H](C(=O)Nc4cccc(C(=O)O)c4)C3)[C@H](C)[C@H]12` [Ertapenem], the MIC [1] is reported as 1 µg/mL, the MIC [2] is reported as 1 µg/mL and the MIC [3] is reported as > 32 µg/mL. For the same molecule, the MIC [4] was 4 µg/mL, the MIC [5] was 1 µg/mL and the MIC [6] was 1 µg/mL. For the same molecule, the MIC [7] was > 32 µg/mL, the MIC [8] was > 32 µg/mL and the MIC [9] was 0.125 µg/mL. For the same molecule, the MIC [10] was 0.25 µg/mL, the MIC [11] was 8 µg/mL and the MIC [12] was 0.25 µg/mL. The MIC [13] was 0.25 µg/mL, the MIC [14] was 0.25 µg/mL and the MIC [15] was 16 µg/mL. It also gave an MIC [16] of 16 µg/mL, an MIC [17] of 0.5 µg/mL and an MIC [18] of 0.5 µg/mL. The MIC [19] was > 32 µg/mL, the MIC [20] was 0.5 µg/mL and the MIC [21] was 0.5 µg/mL. The MIC [22] was 0.5 µg/mL, the MIC [23] was > 32 µg/mL and the MIC [24] was > 32 µg/mL. For the same molecule, the MIC [25] was 1 µg/mL, the MIC [26] was 1 µg/mL and the MIC [27] was > 32 µg/mL. For the same molecule, the MIC [28] was 1 µg/mL, the MIC [29] was 1 µg/mL and the MIC [30] was 1 µg/mL. The MIC [31] was > 32 µg/mL, the MIC [32] was > 32 µg/mL and the MIC [33] was 0.06 µg/mL. It also gave an MIC [34] of 0.06 µg/mL, an MIC [35] of 4 µg/mL and an MIC [36] of 0.06 µg/mL. For the same molecule, the MIC [37] was 0.125 µg/mL, the MIC [38] was 0.125 µg/mL and the MIC [39] was 4 µg/mL. For the same molecule, the MIC [40] was 4 µg/mL, the MIC [41] was 0.015 µg/mL and the MIC [42] was 0.03 µg/mL. It also gave an MIC [43] of 2 µg/mL, an MIC [44] of 0.03 µg/mL and an MIC [45] of 0.125 µg/mL. It also gave an MIC [46] of 0.125 µg/mL, an MIC [47] of 4 µg/mL and an MIC [48] of 4 µg/mL.

`CCO/N=C(\C(=O)N[C@@H]1C(=O)N2C(C(=O)[O-])=C(Sc3nc(-c4cc[n+](C)cc4)cs3)CS[C@H]12)c1nsc(N)n1` [Ceftaroline] was tested, and the MIC [1] was 64 µg/mL, the MIC [2] was 64 µg/mL and the MIC [3] was > 256 µg/mL. It also gave an MIC [4] of 256 µg/mL, an MIC [5] of 64 µg/mL and an MIC [6] of 64 µg/mL. For the same molecule, the MIC [7] was 128 µg/mL, the MIC [8] was 256 µg/mL and the MIC [9] was 128 µg/mL. For the same molecule, the MIC [10] was > 256 µg/mL, the MIC [11] was > 256 µg/mL and the MIC [12] was > 256 µg/mL. The MIC [13] was > 256 µg/mL, the MIC [14] was > 256 µg/mL and the MIC [15] was > 256 µg/mL. The MIC [16] was > 256 µg/mL, the MIC [17] was > 256 µg/mL and the MIC [18] was > 256 µg/mL. For the same molecule, the MIC [19] was > 256 µg/mL, the MIC [20] was > 256 µg/mL and the MIC [21] was > 256 µg/mL. For the same molecule, the MIC [22] was > 256 µg/mL, the MIC [23] was > 256 µg/mL and the MIC [24] was > 256 µg/mL. The MIC [25] was 8 µg/mL, the MIC [26] was 8 µg/mL and the MIC [27] was 16 µg/mL. It also gave an MIC [28] of 8 µg/mL, an MIC [29] of 8 µg/mL and an MIC [30] of 8 µg/mL. For the same molecule, the MIC [31] was 16 µg/mL, the MIC [32] was 16 µg/mL and the MIC [33] was 16 µg/mL. For the same molecule, the MIC [34] was 16 µg/mL, the MIC [35] was 64 µg/mL and the MIC [36] was 16 µg/mL. The MIC [37] was 16 µg/mL, the MIC [38] was 16 µg/mL and the MIC [39] was 32 µg/mL. It also gave an MIC [40] of 32 µg/mL, an MIC [41] of 0.25 µg/mL and an MIC [42] of 0.25 µg/mL. It also gave an MIC [43] of 1 µg/mL, an MIC [44] of 0.5 µg/mL and an MIC [45] of 1 µg/mL. It also gave an MIC [46] of 1 µg/mL, an MIC [47] of 4 µg/mL and an MIC [48] of 4 µg/mL.
